Test systems include 786-0; DMS-273; KM-20L2; LXFL 529; SNB-78; BT-549; PC-3; T47D; RXF 631.
What all share (experiment): NCI tumour cell line growth inhibition, 48 h

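Dose response: 5 concentrations. Exposure: 48 h. Format: 96-well plates. Endpoint: linear interpolation; highest concentration if not reached. GI50 is the concentration that inhibits growth by half.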 Activity calls are given as the source filed them. Cut-off read from the data, not from the text of the source: active = GI50 up to about 1.1 µM and inactive = higher. Some results are limits rather than exact numbers.

As to `COC(=O)C1CCC(=O)N1/C(C)=N/NC(=O)Nc1ccc(Cl)c(Cl)c1` (configuration not stated), the GI50 in the test with 786-0 was > 100 µM (inactive); in the test on DMS-273 it was > 100 µM (inactive); in the test with KM-20L2, 32.2 µM (inactive); in the test on LXFL 529 it was 28 µM (inactive); with SNB-78 it was > 100 µM (inactive).

On to `O=C(N/N=C/C=C/c1ccc([N+](=O)[O-])o1)c1ccc(Br)s1`, for which the GI50 in the test with 786-0 is 19.1 µM (inactive); in the test on BT-549, 25.3 µM (inactive); in the test with PC-3, 18.7 µM (inactive); with T47D, 28.4 µM (inactive).

Turning to `COc1cc(/C=C/C2=C(C#N)C(=O)OC2(C)C)ccc1O`, the GI50 is > 100 µM (inactive) in the test with DMS-273, 58.5 µM (inactive) with KM-20L2, 93.1 µM (inactive) in the test with RXF 631 and > 100 µM (inactive) with SNB-78.

In the case of `COc1cc(C2c3cc4c(cc3[C@@H](Nc3ccc(N5CCOCC5)cc3)C3COC(=O)[C@H]23)OCO4)cc(OC)c1O` (some centres not stated), the GI50 in the test on DMS-273 was 0.238 µM (active); with KM-20L2, 1.57 µM (inactive).

`COc1cc(C2c3cc4c(cc3[C@@H](Nc3cccc(C(C)=O)c3)C3COC(=O)[C@H]23)OCO4)cc(OC)c1O` (some centres not stated): the values for the GI50 in the test with DMS-273, with KM-20L2 and with SNB-78 were 0.0497 µM (active), 1.66 µM (inactive) and 2.75 µM (inactive), respectively.

Take `COC1C=CC(O)C(CO)O1` (configuration not stated): the GI50 in the test with KM-20L2, in the test on LXFL 529 and in the test with SNB-78 was > 100 µM (inactive) in each case.

For `O=C1Cc2c(-c3ccccc3)cc(-c3cccc(Cl)c3)nc2-c2ccccc2N1`, the GI50 in the test on BT-549 is 6.61 µM (inactive); in the test with PC-3, 5.97 µM (inactive); in the test on T47D it was 2.05 µM (inactive).

On to `CCCCOP1(=O)C=CC(Cl)=C(C)C1` (configuration not stated), for which the GI50 with 786-0 is 22.3 µM (inactive); in the test with KM-20L2, 22.8 µM (inactive); with LXFL 529, 27.9 µM (inactive); in the test on RXF 631, 29.1 µM (inactive).

On to `COc1cc(C)cc2c1C(=O)C(NC(C)=O)=CC2=O`, for which the GI50 in the test on 786-0 was > 100 µM (inactive); in the test with BT-549, > 100 µM (inactive); in the test on PC-3 it was > 100 µM (inactive); in the test on T47D it was 59.3 µM (inactive).

On to `CC1C[C@]2(C[C@@H](C)C(=O)O2)OC2CC3(C)C4CCC5C(C)(C)OC(=O)CC[C@@]56C[C@@]46CC[C@]3(C)C12` (some centres not stated), for which the GI50 in the test on DMS-273, in the test with LXFL 529, in the test with RXF 631 and with SNB-78 was > 100 µM (inactive) throughout.

As to `COc1ccc(C2C(C(=O)O)=C(COC(C)=O)Oc3cc4c(cc32)OCO4)cc1` (configuration not stated), the GI50 in the test on DMS-273, with KM-20L2, in the test with RXF 631 and in the test with SNB-78 was > 100 µM (inactive) throughout.

As for `COC(=O)c1ccc(NCC2=C(Br)C(=O)C=CC2=O)cc1Cl`, the GI50 in the test with 786-0 is 13.3 µM (inactive); in the test with BT-549, 13.1 µM (inactive); in the test on PC-3, 20 µM (inactive); in the test on T47D, 20 µM (inactive).

As for `CN1CC=C(c2cccn2C)CC1`, the GI50 in the test on 786-0, in the test with BT-549, in the test on PC-3 and in the test with T47D was > 100 µM (inactive) throughout.

On to `COC(=O)C1=COC2OC3/C(=C\c4ccc(O)c(OC)c4)C(=O)OC34C=CC1C24` (configuration not stated), for which the GI50 is 16.3 µM (inactive) in the test with DMS-273, 17.8 µM (inactive) with KM-20L2, 13.5 µM (inactive) in the test with LXFL 529 and 15.2 µM (inactive) with SNB-78.

As to `COc1cc2cc(C(=O)N3CC(CCl)c4c3cc(N(C)C)c3ccccc43)[nH]c2c(OC)c1OC` (configuration not stated), the GI50 is < 0.01 µM (active) in the test on 786-0, 0.103 µM (active) in the test on BT-549, < 0.01 µM (active) in the test on PC-3 and < 0.01 µM (active) in the test on T47D.

Turning to `COP(=O)(OC)C(Cc1cn(C(C)=O)c2ccccc12)C(=O)O` (configuration not stated), the GI50 in the test with PC-3 and in the test with T47D was > 100 µM (inactive) in each case.

Turning to `CCSc1nc(N)c2c(-c3ccc(OC)c(OC)c3)c3c(nc2n1)CCCC3`, the GI50 in the test on BT-549, in the test on PC-3 and in the test with T47D was > 100 µM (inactive) each time.

Consider `COc1cc(CCCl)c(CC2=NCCc3cc(OC)c(OC)cc32)cc1OC`, for which the figures for the GI50 in the test on BT-549, with PC-3 and in the test with T47D were > 100 µM (inactive), 41.1 µM (inactive) and > 100 µM (inactive), respectively.

For the molecule `N#C/C(=C\c1cccc(O)c1O)C(N)=O`, the GI50 in the test with 786-0 is 33.3 µM (inactive); with DMS-273 it was 57.3 µM (inactive); with KM-20L2, 52.5 µM (inactive); in the test with LXFL 529 it was 50.6 µM (inactive); in the test with RXF 631, 48.8 µM (inactive); with SNB-78, 52 µM (inactive).

Take `CCCCCCCCCCCC1=C(O)C(=O)C=C(O)C1=O` [EMBELIN]: the values for the GI50 in the test on DMS-273, in the test with KM-20L2 and in the test with SNB-78 were 4.72 µM (inactive), 7.43 µM (inactive) and 9.66 µM (inactive), respectively.

As to `N/C(=N\O)N/N=C\c1cc([N+](=O)[O-])cc([N+](=O)[O-])c1O`, the GI50 was 2.72 µM (inactive) in the test on DMS-273, 24.9 µM (inactive) in the test with KM-20L2 and > 100 µM (inactive) in the test on SNB-78.

For the molecule `CCP(=O)(CC)C(Cl)Cl`, the GI50 with PC-3 and in the test with T47D was > 100 µM (inactive) throughout.

Consider `O=C1C(Cl)=C(N2CCC[C@H]2CO)C(=O)c2c(O)ccc(O)c21`, for which the GI50 in the test with 786-0 is 2.03 µM (inactive); with BT-549 it was > 10 µM (inactive); in the test with PC-3 it was 4.24 µM (inactive); in the test with T47D, 2.11 µM (inactive).

On to `CC(=O)OC(C(=O)O)C(OC(C)=O)C(OC(C)=O)C(OC(C)=O)C(=O)O` (configuration not stated), for which the GI50 with BT-549 and with PC-3 was > 100 µM (inactive) each time.

As for `Cc1c(OCc2ccccc2)c(=O)ccn1CCc1c[nH]c2ccccc12`, the GI50 was 33.9 µM (inactive) in the test with 786-0, 44.6 µM (inactive) in the test with BT-549, 30.9 µM (inactive) in the test with PC-3 and 17.3 µM (inactive) in the test on T47D.

On to `O=c1ccn(CC2(CO)CC(Cc3ccccc3)C2)c(=O)[nH]1` (configuration not stated), for which the GI50 in the test on 786-0, in the test with BT-549, in the test with PC-3 and in the test on T47D was > 100 µM (inactive) each time.

As for `Cc1ccc2c(O)cc(-c3cc(C)sc3C)nc2n1`, the GI50 was 3.93 µM (inactive) in the test on 786-0, 8.87 µM (inactive) in the test on BT-549, 2.55 µM (inactive) in the test with PC-3 and 2.67 µM (inactive) with T47D.

For `O=C1C2Cc3ccccc3CN2C(=O)N1CN1CCCCC1` (configuration not stated), the GI50 in the test with 786-0 is > 100 µM (inactive); in the test on DMS-273, 50.8 µM (inactive); in the test with KM-20L2, > 100 µM (inactive); in the test with LXFL 529, > 100 µM (inactive).

Turning to `CCOC(=O)c1c(-c2ccccc2)c(C)cn1C`, the GI50 in the test with 786-0 and with BT-549 was > 10 µM (inactive) each time.

Regarding `Oc1ccccc1-c1nn2c(CCCCCCCCc3nnc4sc(-c5ccccc5O)nn34)nnc2s1`, the GI50 in the test on 786-0 was 14.7 µM (inactive); with BT-549, 24.2 µM (inactive); in the test with PC-3 it was 26.5 µM (inactive); with T47D it was 4.9 µM (inactive).

As to `C=C1OC(=O)[C@]2([C@@H](/C=C/C)C=CC(=O)[C@H]2O)[C@@H]1O`, the GI50 in the test on 786-0, with PC-3 and in the test with T47D was > 100 µM (inactive) throughout.

In the case of `[N-]=[N+]=Nc1c(C=O)c(=O)n2c3c(cccc13)CCC2`, the GI50 in the test on 786-0 is 3.93 µM (inactive); with BT-549, 2.65 µM (inactive); with PC-3 it was 12.1 µM (inactive); in the test on T47D, 4.86 µM (inactive).

In the case of `NC(=O)C1(c2ccccc2)Nc2ccccc2S1` (configuration not stated), the GI50 in the test with DMS-273, in the test with KM-20L2 and in the test with LXFL 529 was > 100 µM (inactive) each time.

For `C/C([O-])=C(/c1nc(-c2ccc([N+](=O)[O-])o2)no1)[n+]1cc(C)ccc1C`, the GI50 in the test with DMS-273 is 11.7 µM (inactive); in the test on KM-20L2, 12.6 µM (inactive); with SNB-78, 20.7 µM (inactive).

For `COC(=O)C1=C(O)C(C(=O)OC)[C@]2(O)[C@@H](C(=O)OC)[C@H]1C[C@@H](c1ccccc1)[C@@H]2C(=O)OC` (some centres not stated), the GI50 in the test on BT-549 is 15.8 µM (inactive); in the test on T47D it was 27.6 µM (inactive).

As for `CCCCOP(C)(=O)C(NC(=O)OCC)(C(F)(F)F)C(F)(F)F` (configuration not stated), the GI50 in the test on BT-549, with PC-3 and in the test on T47D was > 100 µM (inactive) in each case.

On to `C#CC[C@@]12CC(=O)C[C@@H]1CCC1(C2)OCCO1.C#CC[C@]12CC(=O)CC[C@H]1CC(=O)C2`, for which the GI50 in the test with DMS-273, with KM-20L2 and with SNB-78 was > 100 µM (inactive) in each case.

On to `Cc1c(N=NN(C)C)cc[n+]([O-])c1C`, for which the GI50 with DMS-273, with KM-20L2 and with SNB-78 was > 100 µM (inactive) in each case.

Turning to `CCOC(=O)C[C@@H]1C2(C=C[C@@]13CO3)OCC(C)(C)CO2`, the GI50 in the test on BT-549, in the test with PC-3 and in the test with T47D was > 100 µM (inactive) throughout.

Turning to `CCCCCc1cccc(=O)o1`, the GI50 in the test with 786-0, with BT-549, in the test on PC-3 and in the test with T47D was > 100 µM (inactive) each time.

Turning to `CSc1nc2c(ncn2C2OCC(O)C(O)C2O)c(=O)n1C` (configuration not stated), the GI50 in the test on DMS-273, in the test on KM-20L2 and in the test with SNB-78 was > 100 µM (inactive) each time.

On to `Nc1nnc(N)n1NC(=O)C(=O)Nc1ccc([N+](=O)[O-])cc1`, for which the GI50 in the test with DMS-273, in the test with KM-20L2, in the test with RXF 631 and in the test on SNB-78 was > 100 µM (inactive) in each case.

For `COP(=O)(OC)[C@H](O)[C@H]1C[C@@H]1c1ccccc1`, the GI50 in the test with BT-549, in the test on PC-3 and in the test on T47D was > 100 µM (inactive) in each case.

The values are drawn from ChEMBL document CHEMBL1201862, “PubChem BioAssay data set” (2004).
